# ChEMBL document CHEMBL3098036, “Sulfonamide inhibition studies of the δ-carbonic anhydrase from the diatom Thalassiosira weissflogii” (Bioorg Med Chem Lett, 2014)
# Target: T1, Delta carbonic anhydrase (Conticribra weissflogii, UniProt Q5U9J1)
# T1 sequence (Q5U9J1 whole entry): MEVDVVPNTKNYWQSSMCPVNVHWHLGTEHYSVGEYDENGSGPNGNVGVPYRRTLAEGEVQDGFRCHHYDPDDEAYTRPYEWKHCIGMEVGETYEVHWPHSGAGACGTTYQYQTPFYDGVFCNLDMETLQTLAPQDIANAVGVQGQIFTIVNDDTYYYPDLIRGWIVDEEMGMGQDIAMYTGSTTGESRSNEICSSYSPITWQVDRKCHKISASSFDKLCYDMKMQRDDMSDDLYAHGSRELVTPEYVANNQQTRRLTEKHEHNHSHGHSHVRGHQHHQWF
row,SMILES,Ki [nM]
1,NS(=O)(=O)c1ccc(CCNS(=O)(=O)c2ccc([N+](=O)[O-])cc2CO)cc1,7880
2,NS(=O)(=O)c1cccc(S(N)(=O)=O)c1,424
3,Nc1ccc(S(=O)(=O)NCc2ccc(S(N)(=O)=O)cc2)cc1,897
4,Nc1ccc(S(=O)(=O)Nc2nnc(S(N)(=O)=O)s2)cc1,12400
5,Nc1ccc(S(N)(=O)=O)cc1Br,94.6
6,Nc1ccc(S(=O)(=O)NCCc2ccc(S(N)(=O)=O)cc2)cc1,862
7,NS(=O)(=O)c1nnc(NS(=O)(=O)c2ccccc2)s1 [BENZOLAMIDE],394
8,NS(=O)(=O)c1ccc(C(=O)O)cc1 [CARZENIDE],871
9,Cc1ccc(-c2cc(C(F)(F)F)nn2-c2ccc(S(N)(=O)=O)cc2)cc1 [CELECOXIB],265
10,NS(=O)(=O)c1cc(Cl)c(Cl)c(S(N)(=O)=O)c1 [DICHLORPHENAMIDE],458
11,NCc1ccc(S(N)(=O)=O)cc1 [MAFENIDE],424
12,CC(=O)/N=c1/sc(S(N)(=O)=O)nn1C [METHAZOLAMIDE],170
13,Cc1ccc(S(N)(=O)=O)cc1 [P-TOLUENESULFONAMIDE],424
14,NS(=O)(=O)Cc1noc2ccccc12 [ZONISAMIDE],404

# Other lines, results leading:
row,Ki [nM],SMILES
1,762,NS(=O)(=O)c1cc(Cl)cc(Cl)c1O
2,10600,Nc1nnc(S(N)(=O)=O)s1
3,3740,Nc1ccc(S(=O)(=O)Nc2ccc(S(N)(=O)=O)cc2)cc1
4,615,Nc1nccc(Nc2ccc(S(N)(=O)=O)cc2)n1
5,5530,Cn1nc(S(N)(=O)=O)sc1=N
6,4700,NS(=O)(=O)c1ccc(CCO)cc1
7,295,Nc1cccc(S(N)(=O)=O)c1
8,15200,NS(=O)(=O)c1ccc(CO)cc1
9,167,Nc1ccc(S(N)(=O)=O)cc1Cl
10,375,NS(=O)(=O)c1ccc(S(=O)(=O)Nc2cccc3c(Cl)c[nH]c23)cc1
11,118,CCN[C@H]1CN(CCCOC)S(=O)(=O)c2sc(S(N)(=O)=O)cc21 [BRINZOLAMIDE]
12,9200,O=C1NS(=O)(=O)c2ccccc21 [SACCHARIN]
13,392,CC1(C)O[C@@H]2[C@@H](CO[C@@]3(COS(N)(=O)=O)OC(C)(C)O[C@@H]23)O1 [TOPIRAMATE]
